This is an account of results in patent EP0679649B1, “2,3-Dihydrobenzofuran Derivatives” (Asahi Kasei Kogyo Kabushiki Kaisha, priority 1993, dated 1994).

The target in data set [1] is T1, serotonin 1A receptor (Rattus norvegicus, UniProt P19327).
T1 construct: The resultant precipitate was used as a rat hippocampal membrane fraction in the following procedures; from tissue; host or cells: brain (hippocampal) membrane fraction of male SD rat
T1 sequence (P19327 1-422): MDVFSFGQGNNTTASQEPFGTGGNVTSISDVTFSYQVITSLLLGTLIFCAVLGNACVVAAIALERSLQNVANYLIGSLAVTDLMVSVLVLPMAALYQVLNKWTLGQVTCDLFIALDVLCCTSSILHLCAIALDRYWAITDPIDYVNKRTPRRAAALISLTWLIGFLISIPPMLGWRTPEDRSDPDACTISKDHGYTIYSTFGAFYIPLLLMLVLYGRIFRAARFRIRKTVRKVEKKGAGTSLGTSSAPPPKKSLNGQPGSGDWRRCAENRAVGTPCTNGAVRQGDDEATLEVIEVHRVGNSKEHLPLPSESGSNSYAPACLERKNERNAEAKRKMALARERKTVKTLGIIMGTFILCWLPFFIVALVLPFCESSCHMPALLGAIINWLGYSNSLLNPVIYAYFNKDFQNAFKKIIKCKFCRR
Kind of data set: Affinity for serotonin 1A receptor (inhibition of 3H-8-OH-DPAT binding to rat hippocampal membrane fraction). To be noted: radioligand 3H-8-OH-DPAT, compounds tested as hydrochloride salt, read-out: 5-HT1A Ki.

The target of data set [2] is adrenaline α1 receptor. The experiment in a line: Affinity for adrenaline α1 receptor (inhibition of 3H-Prazosin binding to rat cerebral cortex membrane fraction). Particulars: for Ki: rat cerebral cortex membrane fraction, radioligand 3H-Prazosin, compounds tested as hydrochloride salt. As to the method:
A male SD strain rat (7-week old; Charles River) was decapitated, and brain was taken out therefrom quickly. Cerebral cortex of the rat was separated and extracted at […] under ice cooling. The extracted cerebral cortex was frozen at -80 °C for 24 hours or longer. This frozen system was gradually thawed under ice cooling and then, 50 mM Tris-HCl buffer (pH 7.4) was added to the brain under ice cooling to obtain a suspension. The resultant suspension was homogenized, and then subjected to centrifugation at 48000 g for 15 minutes, to thereby obtain a precipitate. The precipitate thus obtained was washed twice and resuspended in the same Tris-HCl buffer as used above. […] The total volume amount of the reaction mixture was 1 ml. The resultant reaction mixture was subjected to suction filtration using a Whatman GF/C filter, and the filter was washed three times in 50 mM Tris-HCl buffer (pH 7.4, 4 ml), transferred to a vial and then, the radioactivity of Prazosin absorbed on the filter was determined using a liquid scintillation counter. […] Further, substantially the same procedure as mentioned above was repeated, except that, instead of Prazosin, a test compound was used in a predetermined concentration. […] The binding inhibition ratios were plotted, taking the logarithmic value of the concentration of the test compound as the abscissa value, and the binding inhibition ratio as the ordinate value. Then, a curve was drawn by non-linear least square method.

Data set [3] relates to mice. Kind of data set: Toxicity test (intraperitoneal administration to mice). The data set is classed as in vivo. To be noted: intraperitoneally administered to mice, 100 mg/kg.
The test system of data set [4] is male Wistar strain rats. The experiment in a line: Anti-depression activity (forced swimming test using rats). The data set is classed as in vivo, rat. To be noted: for Time spent in immobile state: 30 minutes before test, observed for 6 minutes, 6 rats, physiological saline 200; for time spent in the immobile state (result in words): hydrochloride, 30 mg/kg and 60 mg/kg p.o. An excerpt:
When a rat is put in a water tank, the rat struggles for its life to get out of the water (that is, the rat starts a "forced swimming"). If the rat finds that it is impossible for him to get out, the rat stops swimming and assumes an immobile state. It has been known that the administration of an antidepressant can cause a violent swimming motion in the rat for getting out of the water, with a result that the time spent in the immobile state is shortened. The shortening of the time in the immobile state of the rat in the forced swimming test by the administration of the antidepressant is well correlated to the clinical anti-depression effect. Accordingly, in developing antidepressants, the forced swimming test using a rat is the most reliable screening method. In the present test, male Wistar strain rats were used. Compounds obtained in Examples 1, 17 and 18 of the present invention (each in the form of a hydrochloride thereof) were, individually, orally administered to a rat. 30 minutes after the administration, the rat was put in a water tank and then, observed for 6 minutes. The time of the rat spent in the immobile state was measured.

Where [5] appears, read: Dose 30 mg/kg p.o. (hydrochloride), 30 mg/kg.

As usually defined, the Ki is the dissociation constant of the complex between target and ligand, obtained from inhibition or displacement. Take `O=C(NCCCCNCC1Cc2ccccc2O1)c1cccc(C(F)(F)F)c1` (stereo not shown) [Example 13, 2,3-dihydro-2-[N-{4-(3-trifluoromethylbenzoylamino)butyl}]aminomethylbenzo[b]furan]: the Ki amounted to 5.3 nM in data set [1] and 380 nM in data set [2].
For `O=C(NCCCCNCC1Cc2ccccc2O1)c1cccc([N+](=O)[O-])c1` (stereo not shown) [Example 15, 2,3-dihydro-2-[N-{4-(3-nitrobenzoylamino)butyl}]aminomethylbenzo[b]furan] the same measures were 11 nM and 250 nM.
`O=C(NCCCCNCC1Cc2ccccc2O1)c1ccccc1O` (stereo not shown) [Example 29, 2,3-dihydro-2-[N-{4-(2-hydroxybenzoylamino)butyl}]aminomethylbenzo[b]furan]: the Ki was 5.4 nM in data set [1] and 260 nM in data set [2].
The matching figures for `CN(CCCCNC(=O)c1ccccc1)CC1Cc2ccccc2O1` (stereo not shown) [Example 24, 2-{N-(4-benzoylaminobutyl)-N-methyl}aminomethyl-2,3-dihydrobenzo[b]furan]: 11 nM and 760 nM.
On to `O=C(NCCCCNCC1Cc2ccccc2O1)c1ccccc1` (stereo not shown) [Example 1, 2-{N-(4-benzoylaminobutyl)}aminomethyl-2,3-dihydrobenzo[b]furan], for which the figures for the Ki in data set [1] and in data set [2] were 2.9 nM and 350 nM, respectively. Besides, the mortality / toxicity entry in data set [3] is listed as “none of the mice died”. Besides, the “Time spent in immobile state” value in data set [4] (setting [5]) turned out to be 117 s. The “time spent in the immobile state (result in words)” value (from here on “time spent in the immobile state”) in data set [4] is “remarkably shortened the time spent in the immobile state”.
Broadly, the Kd is a measure of binding affinity in units of concentration. As to ^3H-Prazosin [reference compound], the Kd in data set [2] (value used in the Ki calculation, read-out: Kd of the radioactive ligand for the adrenaline α1 receptor) is 0.133 nM.
`COc1cccc(C(=O)NCCCCNCC2Cc3ccccc3O2)c1` (stereo not shown) [Example 7, 2,3-dihydro-2-[N-{4-(3-methoxybenzoylamino)butyl}]aminomethylbenzo[b]furan]: the results for the Ki in data set [1] and in data set [2] were 4.3 nM and 340 nM, respectively.
For the molecule `Cc1cccc(C(=O)NCCCCNCC2Cc3ccccc3O2)c1` (stereo not shown) [Example 4, 2,3-dihydro-2-[N-{4-(3-methylbenzoylamino)butyl}]aminomethylbenzo[b]furan], the values for the Ki in data set [1] and in data set [2] were 1.2 nM and 270 nM, respectively.
In the case of `O=C(NCCCCNCC1Cc2ccccc2O1)c1ccccc1F` (stereo not shown) [Example 9, 2,3-dihydro-2-[N-{4-(2-fluorobenzoylamino)butyl}]aminomethylbenzo[b]furan], the Ki in data set [1] stood at 8.2 nM; in data set [2] it was 330 nM.
The matching figures for `O=C(NCCCCNCC1Cc2ccccc2O1)c1cccc(F)c1` (stereo not shown) [Example 10, 2,3-dihydro-2-[N-{4-(3-fluorobenzoylamino)butyl}]aminomethylbenzo[b]furan]: 3 nM and 420 nM.
Turning to `O=C(NCCCCNCC1Cc2ccccc2O1)c1ccccc1` (single isomer, unassigned; (-)) [Example 18, (-)-2-{N-(4-benzoylaminobutyl)}aminomethyl-2,3-dihydrobenzo[b]furan], the Ki in data set [1] was 1.3 nM; in data set [2], 270 nM. For the same molecule, in data set [4] (setting [5]), the “Time spent in immobile state” value amounted to 142 s. For the same molecule, the “time spent in the immobile state” value in data set [4] is recorded as “remarkably shortened the time spent in the immobile state”.
As for `O=C(NCCNCC1Cc2ccccc2O1)c1ccccc1` (stereo not shown) [Example 19, 2-{N-(2-benzoylaminoethyl)}aminomethyl-2,3-dihydrobenzo[b]furan], the Ki in data set [1] was 3.7 nM.
The same measure, in the same setting: for `O=C(NCCCNCC1Cc2ccccc2O1)c1ccc(F)cc1` (stereo not shown) [Example 23, 2-[N-{3-(4-fluorobenzoylamino)propyl}]aminomethyl-2,3-dihydrobenzo[b]furan] the value was 12 nM.
Take `O=S(=O)(NCCCCNCC1Cc2ccccc2O1)c1ccccc1` (stereo not shown) [Example 2, 2-{N-(4-benzenesulfonamidobutyl)}aminomethyl-2,3-dihydrobenzo[b]furan]: the Ki in data set [1] turned out to be 11 nM; in data set [2], 270 nM.
For the molecule `Cc1cccc(C(=O)NCCNCC2Cc3ccccc3O2)c1` (stereo not shown) [Example 20, 2-[N-{2-(3-methylbenzoylamino)ethyl}]aminomethyl-2,3-dihydrobenzo[b]furan], the Ki in data set [1] worked out at 1.6 nM.
The same measure, in the same setting: the value for `O=C(NCCNCC1Cc2ccccc2O1)c1ccc(F)cc1` (stereo not shown) [Example 21, 2-[N-{2-(4-fluorobenzoyl)aminoethyl}]aminomethyl-2,3-dihydrobenzo[b]furan] was 2 nM.
As for `Cc1ccc(C(=O)NCCCCNCC2Cc3ccccc3O2)cc1` (stereo not shown) [Example 5, 2,3-dihydro-2-[N-{4-(4-methylbenzoylamino)-butyl}]aminomethylbenzo[b]furan], the Ki in data set [1] stood at 12 nM; in data set [2] it was 290 nM.
The matching figures for `CCN(CCCCNC(=O)c1ccccc1)CC1Cc2ccccc2O1` (stereo not shown) [Example 25, 2-{N-(4-benzoylaminobutyl)-N-ethyl}aminomethyl-2,3-dihydrobenzo[b]furan]: 3.1 nM and 710 nM.
Take `O=C(NCCCCNCC1Cc2ccccc2O1)c1ccccc1` (single isomer, unassigned; (+)) [Example 17, (+)-2-{N-(4-benzoylamino)butyl}aminomethyl-2,3-dihydrobenzo[b]furan]: the “Time spent in immobile state” value in data set [4] (Dose 60 mg/kg p.o. (hydrochloride)) was found to be 142 s. In addition, in data set [4], the “time spent in the immobile state” value is “remarkably shortened the time spent in the immobile state”.
In the case of `O=C(NCCCCNCC1Cc2ccccc2O1)c1ccc(F)cc1` (stereo not shown) [Example 11, 2,3-dihydro-2-[N-{4-(4-fluorobenzoylamino)butyl}]aminomethylbenzo[b]furan], the Ki came to 2.6 nM in data set [1] and 300 nM in data set [2].
